Source: article PMC8881469, “Molecular recognition of formylpeptides and diverse agonists by the formylpeptide receptors FPR1 and FPR2” (Nature Communications, 2022)
Read-outs that look alike come from different tables or passages of the source.

What was measured:
FPR2 [1] = conditions: at various concentrations; cited from earlier work
Source text: This may be due to the coupling of Gi, which stabilizes the receptor in one active conformation. Thus, it is difficult to speculate on the specific conformational states of FPR2 associated with pro-inflammatory and pro-resolving agonists.

FPR2 R205A [2] = conditions: cited from earlier work
Source text: (§1) To investigate critical structural determinants for the binding of CGEN-885A, we measured the CGEN-885A-induced signaling of FPR2 with mutations of residues in the CGEN-885A-binding pocket. […] Considering the negatively charged environment of the ligand-b ...

FPR2 R201A [3] = conditions: cited from earlier work
Source text: as §1

FPR2 [4] = conditions: relative to C43; cited from earlier work
Source text: Similar to peptide agonists, C43 causes conformational changes of residues in the activation chamber including V113^3.40 and W254^6.48 through direct interactions to activate the receptor.

FPR2 [5] = conditions: cited from earlier work
FPR2 F110A = assay: cAMP accumulation assay, HEK293 cells, Epac-based FRET biosensor H187, 1 µM forskolin; format: cell-based, human
Method: (§2) An Epac-based FRET cAMP biosensor H187 was used to measure cellular cAMP levels. The plasmid encoding H187 was transfected into HEK293 cells to make stable cells reporting intracellular cAMP levels. In brief, the H187 stable cells were seeded in poly-D-lysine treated 96-well black clear-bottom plate at 30,000 cells per well. 24 h later, cells were transiently transfected with DNA encoding the N-terminal FLAG-tagged wild-type FPR1, FPR2 or mutants at an amount of 0.1 µg DNA per well. Assays were performed 24 h after transfection. Cells were washed twice with HBSS buffer and incubated at room temperature for 30 min before the addition of forskolin to a final concentration of 1 µM. The intracellular cAMP level was measured using a multimode reader (Spark 20 M, TECAN) measuring the fluorescence emission intensity at 485 nm and 535 nm upon the excitation at 430 nm. 15 min after forskolin incubation, cells were stimulated with agonists at different concentrations and measured for additional 20 min. The FRET signal was calculated as the normalized FRET ratio of fluorescence emission at 535 nm (F535) divided by emission at 485 nm (F485). The EC50 was determined with the FRET ratio at the timepoint of 1600 s. The data analysis was performed using the nonlinear regression fit logIC50 mode in GraphPad Prism.

FPR2 R205A [6] = assay: as above; format: cell-based, human
Method: as §2

FPR2 R201A [7] = assay: as above; format: cell-based, human
Method: as §2

FPR1 [8] = conditions: cited from earlier work
[9] = multiple studies; cited from earlier work
FPR1 [10] = conditions: short formylpeptides; cited from earlier work
Source text: The human formylpeptide receptor (FPR) family comprises of three members, FPR1, FPR2 (also named FPRL1), and FPR3[1]. They were initially discovered and characterized as pattern recognition G protein-coupled receptors (GPCRs) to recognize peptides with N-terminal formyl methionine, which are derived from invading pathogens or host mitochondria as pathogen- or damage-associated molecular patterns (PAMPs and DAMPs)[1]–[5]. FPR1 and FPR2 share a high sequence similarity, yet they display different preferences of formylpeptides. FPR1 is a high-affinity receptor for many short formylpeptides suc ...

FPR1 versus FPR2 = conditions: cited from earlier work
FPR1 Y257F = assay: cAMP accumulation assay, HEK293 cells, Epac-based FRET biosensor H187, 1 µM forskolin; format: cell-based, human; conditions: FPR1 Y257F vs wild type
Method: as §2

FPR1 R84D = assay: as above; format: cell-based, human; conditions: FPR1 R84D vs wild type
Method: as §2

FPR1 R205A = assay: as above; format: cell-based, human; conditions: FPR1 R205A vs wild type
Method: as §2

FPR1 D106A = assay: as above; format: cell-based, human; conditions: FPR1 D106A vs wild type
Method: as §2

FPR1 R201A = assay: as above; format: cell-based, human; conditions: FPR1 R201A vs wild type
Method: as §2

FPR1 F102H = assay: as above; format: cell-based, human; conditions: FPR1 F102H vs wild type
Method: as §2

Molecule: CCCCC[C@@H](O)/C=C/C=C\C=C\C=C\[C@@H](O)[C@@H](O)CCCC(=O)O [ATL, aspirin-triggered 15-epi-lipoxin A4]
- FPR2 signaling responses (FPR2 [1]): unusual biphasic signaling responses

Molecule: WKYMVm
- agonistic activity, effect of mutation R205A (FPR2 R205A [2]): much compromised agonistic activities
- agonistic activity, effect of mutation R201A (FPR2 R201A [3]): much compromised agonistic activities

Molecule: CC(C)c1c(NC(=O)Nc2ccc(Cl)cc2)c(=O)n(-c2ccccc2)n1C [C43]
- ligand potency on alternating the para-position of the chloride group (FPR2 [4]): significant loss of ligand potency
- agonist activity on FPR2 (FPR2 [5]; small-molecule agonist): potent
- agonistic action, effect of mutation F110A (FPR2 F110A): nearly undetectable agonistic action
- agonistic action, effect of mutation R205A (FPR2 R205A [6]): nearly undetectable agonistic action
- agonistic action, effect of mutation R201A (FPR2 R201A [7]): nearly undetectable agonistic action
- agonist activity on FPR1 (FPR1 [8]; small-molecule agonist): potent

Molecule: COc1cc(F)c([C@@H]2CNC(=O)[C@H]2NC(=O)Nc2ccccc2)c(F)c1 [BMS-986235]
- pro-resolving and cardiac protective effects [9]: pro-resolving and cardiac protective effects

Molecule: COc1cccc(Cc2cc(C)nn(C(C)C(=O)Nc3ccc(Br)cc3)c2=O)c1 (centres unmarked) [Compound 17b]
- pro-resolving and cardiac protective effects [9]: pro-resolving and cardiac protective effects

Molecule: N-formyl-Met-Leu-Phe [fMLF, prototypical formylpeptide]
- FPR1 affinity (FPR1 [10]): high-affinity
- fold less potent (in terms of EC50) in inducing FPR2 signaling than FPR1 (FPR1 versus FPR2; FPR2 relative to FPR1): about 1000 fold
- potency in activating FPR1, effect of mutation of Y257 to FPR2 counterpart (FPR1 Y257F): reduced potency
- potency in activating FPR1, effect of mutation R84D (FPR1 R84D): reduces the potency
- agonistic potency, effect of mutation R205A (FPR1 R205A): compromised agonistic potency
- agonistic potency, effect of mutation D106A (FPR1 D106A): compromised agonistic potency
- agonistic potency, effect of mutation R201A (FPR1 R201A): compromised agonistic potency
- potency in activating FPR1, effect of mutation of F102 to FPR2 counterpart (FPR1 F102H): reduced potency

Molecule: fMLFII [formylpeptide agonist for both FPR1 and FPR2]
- agonist activity on FPR2 (FPR2 [5]; formylpeptide agonist): potent
- fold higher potency in activating FPR1 than FPR2 (FPR1 versus FPR2; FPR1 relative to FPR2): ~ 100 fold
- affinity for FPR1 relative to FPR2 (FPR1 versus FPR2; FPR1 vs FPR2): higher affinity
- agonist activity on FPR1 (FPR1 [8]; formylpeptide agonist): potent
